Among the data in patent US20250136595A1, “ACYLATED HETEROCYCLIC QUINAZOLINE DERIVATIVES AS INHIBITORS OF ERBB2” (Enliven Inc., priority 2022, published 2025) are GI50 and IC50 values, retold here.

One test has as its target Ba/F3 ERBB2 YVMA (Homo sapiens, UniProt P04626, DUP772-775, cells depend on it). The experiment in a line: Cell viability assay (CellTiter Glo) in Ba/F3 cells engineered to express ERBB2 YVMA. It is filed as cell-based, mouse. Conditions: Ba/F3 cells expressing human ERBB2 YVMA mutant, 72 hours, % viability, read-out: Ba/F3 ERBB2 YVMA IC50. The gist of the method:
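IL-3-independent mouse Ba/F3 line stably transduced with human ERBB2 YVMA, seeded at 3000 cells/well, exposed to serially diluted compound (≤0.1% DMSO) for 72 h at 37° C. ATP read by CellTiter Glo luminescence, normalised to DMSO and media-only controls; sigmoidal nonlinear regression fit.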
In general terms: In ATP-based viability assays light output follows the ATP content of the culture.

Test [1] concerns the target T1, phosphorylated ERBB2 (pERBB2) (Homo sapiens, UniProt P04626).
T1 construct: endogenous in cells; host or cells: BT-474
The experiment in a line: Detection of phosphorylated ERBB2 (pERBB2) by ELISA in BT-474 cells. It is filed as cell-based. As to conditions: four hour incubation with compound. Put shortly:
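BT-474 cells treated 4 h at 37 °C, 5% CO2 with four-fold dilutions (10 μM to 0.01 nM final). Lysates analysed by ELISA for pERBB2, TMB read at OD 450 nm. % relative activity normalised to no-cell (low) and 0.1% DMSO-treated (high) controls.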
A general note: In an ELISA, binding on a coated surface is turned into a signal by an enzyme label.

Test [2] concerns the target T2, phosphorylated EGFR (pEGFR) (Homo sapiens, UniProt P00533).
T2 construct: performed to measure phosphorylated EGFR levels using A431 cells; endogenous in cells; host or cells: A431
Briefly: Detection of phosphorylated EGFR (pEGFR) in EGF-stimulated A431 cells (AlphaLISA). It is filed as cell-based. Conditions: A431 cells (10% FBS), 4 hours incubation, EGF 30 ng/mL for 10 minutes. The gist of the method: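 Cells in 10% FBS treated with compound 4 h at 37° C., then stimulated 10 min with 30 ng/mL EGF, lysed, and pEGFR measured by AlphaLISA. Inhibition normalized to DMSO and staurosporine controls; IC50 from four-parameter logistic fit.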
On the technique in general: In Alpha technology, singlet oxygen from a donor bead excites a nearby acceptor bead.

Where a name gives a salt, the structure may show the parent alone. Some results are limits rather than exact numbers.

T1 sequence (P04626 23-1255): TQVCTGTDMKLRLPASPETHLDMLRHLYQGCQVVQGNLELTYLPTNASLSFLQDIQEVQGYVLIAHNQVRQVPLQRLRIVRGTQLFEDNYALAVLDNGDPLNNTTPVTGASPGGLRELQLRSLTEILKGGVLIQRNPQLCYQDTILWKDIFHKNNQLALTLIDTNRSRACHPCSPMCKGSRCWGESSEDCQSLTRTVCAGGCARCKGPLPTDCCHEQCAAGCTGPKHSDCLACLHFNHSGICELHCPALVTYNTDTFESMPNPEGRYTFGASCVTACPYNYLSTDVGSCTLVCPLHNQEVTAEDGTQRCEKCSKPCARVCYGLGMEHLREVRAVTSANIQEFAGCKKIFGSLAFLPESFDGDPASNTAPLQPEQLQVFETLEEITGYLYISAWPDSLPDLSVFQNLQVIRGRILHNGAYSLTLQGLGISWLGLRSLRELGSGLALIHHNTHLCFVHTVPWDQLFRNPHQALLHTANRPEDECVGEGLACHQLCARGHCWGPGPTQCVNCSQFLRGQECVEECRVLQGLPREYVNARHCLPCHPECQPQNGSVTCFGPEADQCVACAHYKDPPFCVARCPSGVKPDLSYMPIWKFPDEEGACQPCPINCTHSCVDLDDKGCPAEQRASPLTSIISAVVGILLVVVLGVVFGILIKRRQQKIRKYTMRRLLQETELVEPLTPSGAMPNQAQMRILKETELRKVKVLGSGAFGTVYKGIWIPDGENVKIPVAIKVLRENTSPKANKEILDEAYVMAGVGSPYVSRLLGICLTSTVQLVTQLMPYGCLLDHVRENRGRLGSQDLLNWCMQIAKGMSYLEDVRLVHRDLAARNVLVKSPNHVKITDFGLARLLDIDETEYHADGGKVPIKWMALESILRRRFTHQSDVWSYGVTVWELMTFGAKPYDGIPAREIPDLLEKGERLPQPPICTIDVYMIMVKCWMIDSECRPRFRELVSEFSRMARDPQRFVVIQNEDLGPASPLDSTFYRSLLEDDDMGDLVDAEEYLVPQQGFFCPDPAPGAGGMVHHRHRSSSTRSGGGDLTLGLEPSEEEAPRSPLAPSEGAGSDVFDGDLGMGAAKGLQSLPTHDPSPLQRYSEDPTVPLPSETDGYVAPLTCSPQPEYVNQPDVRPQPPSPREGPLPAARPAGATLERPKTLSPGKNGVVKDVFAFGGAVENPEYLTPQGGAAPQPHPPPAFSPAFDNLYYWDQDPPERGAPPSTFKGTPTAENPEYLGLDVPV
T2 sequence (P00533 25-1210): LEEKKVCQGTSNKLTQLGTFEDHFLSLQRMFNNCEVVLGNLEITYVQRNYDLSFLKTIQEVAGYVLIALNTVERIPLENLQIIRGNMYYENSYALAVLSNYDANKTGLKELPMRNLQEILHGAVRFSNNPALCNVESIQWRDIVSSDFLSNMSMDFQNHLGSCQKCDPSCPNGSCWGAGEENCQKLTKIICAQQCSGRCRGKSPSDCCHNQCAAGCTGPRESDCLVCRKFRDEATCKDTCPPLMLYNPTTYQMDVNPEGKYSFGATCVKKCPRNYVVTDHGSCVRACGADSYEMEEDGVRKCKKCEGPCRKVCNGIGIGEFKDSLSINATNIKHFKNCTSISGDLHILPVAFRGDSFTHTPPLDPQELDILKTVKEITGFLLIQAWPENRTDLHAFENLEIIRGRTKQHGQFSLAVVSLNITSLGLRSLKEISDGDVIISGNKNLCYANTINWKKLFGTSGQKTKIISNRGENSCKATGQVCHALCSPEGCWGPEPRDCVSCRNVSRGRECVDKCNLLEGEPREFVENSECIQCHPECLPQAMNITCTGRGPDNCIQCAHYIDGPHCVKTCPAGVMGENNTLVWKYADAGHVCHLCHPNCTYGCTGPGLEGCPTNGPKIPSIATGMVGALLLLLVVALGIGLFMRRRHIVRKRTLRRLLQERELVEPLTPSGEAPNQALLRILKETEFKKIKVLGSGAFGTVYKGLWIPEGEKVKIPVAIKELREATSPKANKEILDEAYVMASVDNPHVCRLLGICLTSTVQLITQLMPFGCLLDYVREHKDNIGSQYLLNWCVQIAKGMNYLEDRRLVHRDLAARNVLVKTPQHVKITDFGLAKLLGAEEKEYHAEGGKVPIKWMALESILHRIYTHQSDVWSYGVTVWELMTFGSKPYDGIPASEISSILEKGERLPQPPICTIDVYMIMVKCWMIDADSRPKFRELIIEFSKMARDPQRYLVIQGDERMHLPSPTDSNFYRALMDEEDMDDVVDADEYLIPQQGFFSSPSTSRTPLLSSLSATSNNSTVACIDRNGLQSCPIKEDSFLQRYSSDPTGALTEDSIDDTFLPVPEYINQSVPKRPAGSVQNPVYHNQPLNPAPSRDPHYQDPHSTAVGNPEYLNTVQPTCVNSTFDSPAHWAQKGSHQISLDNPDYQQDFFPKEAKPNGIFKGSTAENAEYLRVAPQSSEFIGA
Ba/F3 ERBB2 YVMA, sequence (P04626 with tags, fused parts or gaps DUP772-775): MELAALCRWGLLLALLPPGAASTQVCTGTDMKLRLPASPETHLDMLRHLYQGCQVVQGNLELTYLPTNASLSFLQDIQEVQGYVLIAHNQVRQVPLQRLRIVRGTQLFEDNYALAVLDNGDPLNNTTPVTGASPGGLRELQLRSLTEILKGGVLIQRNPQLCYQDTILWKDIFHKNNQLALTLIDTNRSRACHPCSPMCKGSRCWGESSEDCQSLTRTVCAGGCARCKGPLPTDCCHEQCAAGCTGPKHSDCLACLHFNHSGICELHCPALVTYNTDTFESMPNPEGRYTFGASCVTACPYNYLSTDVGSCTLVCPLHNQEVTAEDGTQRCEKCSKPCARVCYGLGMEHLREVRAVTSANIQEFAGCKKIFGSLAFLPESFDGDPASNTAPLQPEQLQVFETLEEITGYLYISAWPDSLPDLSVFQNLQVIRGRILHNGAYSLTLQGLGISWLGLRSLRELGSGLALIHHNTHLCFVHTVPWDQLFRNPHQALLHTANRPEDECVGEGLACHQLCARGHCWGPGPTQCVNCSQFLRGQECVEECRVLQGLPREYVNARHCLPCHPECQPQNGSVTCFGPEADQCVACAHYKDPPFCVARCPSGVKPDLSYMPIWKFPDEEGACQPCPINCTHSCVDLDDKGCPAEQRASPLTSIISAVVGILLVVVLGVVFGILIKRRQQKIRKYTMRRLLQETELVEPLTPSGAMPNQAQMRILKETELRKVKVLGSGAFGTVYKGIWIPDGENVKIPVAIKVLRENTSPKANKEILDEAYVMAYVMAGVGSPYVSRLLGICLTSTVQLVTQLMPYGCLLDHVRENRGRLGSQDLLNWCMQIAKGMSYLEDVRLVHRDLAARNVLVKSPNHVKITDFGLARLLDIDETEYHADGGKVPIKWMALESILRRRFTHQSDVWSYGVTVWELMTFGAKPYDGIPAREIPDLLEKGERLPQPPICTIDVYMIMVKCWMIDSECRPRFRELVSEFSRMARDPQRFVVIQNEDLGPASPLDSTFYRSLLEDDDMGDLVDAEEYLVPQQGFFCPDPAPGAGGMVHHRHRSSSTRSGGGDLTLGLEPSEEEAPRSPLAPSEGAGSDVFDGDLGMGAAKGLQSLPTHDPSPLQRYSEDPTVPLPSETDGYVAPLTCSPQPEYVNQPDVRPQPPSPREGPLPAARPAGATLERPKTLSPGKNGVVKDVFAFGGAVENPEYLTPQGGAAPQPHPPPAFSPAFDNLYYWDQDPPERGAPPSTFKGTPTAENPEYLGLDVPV

As a reminder, the IC50 is the concentration at which inhibition is half-maximal. Regarding `C=CC(=O)N1CCN(c2ccc3ncnc(Nc4ccc(Oc5ccc(C)nc5)c(C)c4)c3n2)CC1` [Compound 91, 1-(4-(4-(3-methyl-4-(6-methylpyridin-3-yloxy)phenylamino)pyrido[3,2-d]pyrimidin-6-yl)piperazin-1-yl)prop-2-en-1-one], the GI50 on Ba/F3 ERBB2 YVMA turned out to be 17.5 nM. The IC50 in test [1] came out at 21.9 nM; in test [2], 329 nM.

As for `Cc1cc(Nc2ncnc3ccc(N4CCN(C(=O)/C=C/CN(C)C)CC4)c(F)c23)ccc1Cc1ccn2ncnc2c1` [Compound 92, (2E)-4-(dimethylamino)-1-(4-{5-fluoro-4-[(3-methyl-4-{[1,2,4]triazolo[1,5-a]pyridin-7-ylmethyl}phenyl)amino]quinazolin-6-yl}piperazin-1-yl) but-2-en-1-one], the GI50 at Ba/F3 ERBB2 YVMA came to 110 nM. The figures for the IC50 in test [1] and in test [2] were 31.6 nM and more than 10000 nM, respectively.

On to `Cc1cc(Nc2ncnc3ccc(N4CCN(C(=O)/C=C/CN(C)C)[C@H](C)C4)c(F)c23)ccc1Cc1ccn2ncnc2c1` [Compound 93, (2E)-4-(dimethylamino)-1-[(2R)-4-{5-fluoro-4-[(3-methyl-4-{[1,2,4]triazolo[1,5-a]pyridin-7-ylmethyl}phenyl)amino]quinazolin-6-yl}-2-methylpiperazin-1-yl]but-2-en-1-one formate], for which the GI50 at Ba/F3 ERBB2 YVMA amounted to 49 nM. The figures for the IC50 in test [1] and in test [2] were 30.7 nM and more than 10000 nM, respectively.

Regarding `Cc1cc(Nc2ncnc3ccc(N4CCN(C(=O)/C=C/CN(C)C)CC4C)c(F)c23)ccc1Cc1ccn2ncnc2c1` (stereo not drawn) [Compound 94, (E)-1-(4-(4-((4-([1,2,4]triazolo[1,5-a]pyridin-7-ylmethyl)-3-methylphenyl)amino)-5-fluoroquinazolin-6-yl)-3-methylpiperazin-1-yl)-4-(dimethylamino)but-2-en-1-one], at Ba/F3 ERBB2 YVMA, the GI50 is more than 500 nM. The figures for the IC50 in test [1] and in test [2] were 160 nM and more than 10000 nM, respectively.

Turning to `C=CC(=O)N1CC2CCC(C1)N2c1ccc2ncnc(Nc3ccc(Cc4ccn5ncnc5c4)c(C)c3)c2n1` [Compound 95, 1-(8-{4-[(3-methyl-4-{[1,2,4]triazolo[1,5-a]pyridin-7-ylmethyl}phenyl)amino]pyrido[3,2-d]pyrimidin-6-yl}-3,8-diazabicyclo[3.2.1]octan-3-yl)prop-2-en-1-one], the GI50 on Ba/F3 ERBB2 YVMA was found to be 6.96 nM. Further, the IC50 in test [1] was 21.2 nM; in test [2], 1800 nM.

As to `C=CC(=O)N1CCN(c2ncc3ncnc(Nc4ccc(Cc5ccc6c(c5)ncn6C)c(C)c4)c3n2)C[C@H]1C` [Compound 96, (R)-1-(2-methyl-4-(8-((3-methyl-4-((1-methyl-1H-benzo[d]imidazol-5-yl)methyl)phenyl)amino)pyrimido[5,4-d]pyrimidin-2-yl)piperazin-1-yl)prop-2-en-1-one], the GI50 at Ba/F3 ERBB2 YVMA stood at 12.5 nM. In addition, the IC50 came out at 63.1 nM in test [1] and 7290 nM in test [2].

In the case of `C=CC(=O)N1CCN(c2cc3c(Nc4ccc(Cc5ccc6c(c5)ncn6C)c(C)c4)ncnc3cn2)C[C@H]1C` [Compound 97, (R)-1-(2-methyl-4-(4-((3-methyl-4-((1-methyl-1H-benzo[d]imidazol-5-yl)methyl)phenyl)amino)pyrido[3,4-d]pyrimidin-6-yl)piperazin-1-yl)prop-2-en-1-one], at Ba/F3 ERBB2 YVMA, the GI50 stood at 52.4 nM. In addition, the figures for the IC50 in test [1] and in test [2] were 24.2 nM and 4950 nM, respectively.

`C=CC(=O)N1CCN(c2ccc3ncnc(Nc4ccc(O[C@@H]5CCCOC5)c(C)c4)c3n2)CC1` [Compound 98, 1-{4-[4-({3-methyl-4-[(3R)-oxan-3-yloxy]phenyl}amino)pyrido[3,2-d]pyrimidin-6-yl]piperazin-1-yl}prop-2-en-1-one]: the GI50 at Ba/F3 ERBB2 YVMA is 64.4 nM. In addition, the IC50 was found to be 65.6 nM in test [1] and 186 nM in test [2].

For `C=CC(=O)N1CCN(c2cc3c(Nc4ccc(CN5CCn6ncnc6C5)c(C)c4)ncnc3cn2)CC1` [Compound 99, 1-(4-{4-[(3-methyl-4-{5H,6H,8H-[1,2,4]triazolo[1,5-a]pyrazin-7-ylmethyl}phenyl)amino]pyrido[3,4-d]pyrimidin-6-yl}piperazin-1-yl)prop-2-en-1-one], the GI50 at Ba/F3 ERBB2 YVMA was more than 500 nM. Also, the results for the IC50 in test [1] and in test [2] were 227 nM and more than 10000 nM, respectively.

For `C=CC(=O)N1CCN(c2cc3c(Nc4ccc(O[C@@H]5CCCOC5)c(C)c4)ncnc3cn2)CC1` [Compound 100, 1-{4-[4-({3-methyl-4-[(3R)-oxan-3-yloxy]phenyl}amino)pyrido[3,4-d]pyrimidin-6-yl]piperazin-1-yl}prop-2-en-1-one], the GI50 at Ba/F3 ERBB2 YVMA worked out at 98.5 nM. For the same molecule, the IC50 in test [1] is 63.7 nM; in test [2] it was 337 nM.

For `C=CC(=O)N1CCN(c2ccc3ncnc(Nc4ccc(CN5CCn6ncnc6C5)c(C)c4)c3c2)CC1` [Compound 101, 1-(4-{4-[(3-methyl-4-{5H,6H,8H-[1,2,4]triazolo[1,5-a]pyrazin-7-ylmethyl}phenyl)amino]quinazolin-6-yl}piperazin-1-yl)prop-2-en-1-one], the GI50 on Ba/F3 ERBB2 YVMA was more than 500 nM. The IC50 was 99 nM in test [1] and more than 10000 nM in test [2].

Turning to `C=CC(=O)N1CCN(c2ccc3ncnc(Nc4ccc(O[C@@H]5CCCOC5)c(C)c4)c3c2)CC1` [Compound 102, 1-{4-[4-({3-methyl-4-[(3R)-oxan-3-yloxy]phenyl}amino)quinazolin-6-yl]piperazin-1-yl}prop-2-en-1-one], the GI50 at Ba/F3 ERBB2 YVMA worked out at 43.9 nM. The IC50 in test [1] stood at 47.6 nM; in test [2], 244 nM.

In the case of `C=CC(=O)N1CCN(c2cc3c(Nc4ccc(Cc5ccn6ncnc6c5)c(C)c4)ncnc3cn2)CC1` [Compound 103, 1-(4-(4-((4-([1,2,4]triazolo[1,5-a]pyridin-7-ylmethyl)-3-methylphenyl)amino)pyrido[3,4-d]pyrimidin-6-yl)piperazin-1-yl)prop-2-en-1-one], at Ba/F3 ERBB2 YVMA, the GI50 amounted to 24.9 nM. For the same molecule, the IC50 in test [1] came out at 16 nM; in test [2], 2770 nM.

On to `C=CC(=O)N1CCN(c2ccc3ncnc(Nc4ccc(Cc5ccn6ncnc6c5)c(C)c4)c3c2)[C@@H](C)C1` [Compound 104, (S)-1-(4-(4-((4-([1,2,4]triazolo[1,5-a]pyridin-7-ylmethyl)-3-methylphenyl)amino)quinazolin-6-yl)-3-methylpiperazin-1-yl)prop-2-en-1-one], for which, at Ba/F3 ERBB2 YVMA, the GI50 came to 65.1 nM. Moreover, the IC50 was 24.7 nM in test [1] and more than 10000 nM in test [2].

Regarding `Cc1cc(Nc2ncnc3ccc(N4CCN(C(=O)/C=C/CN(C)C)C[C@@H]4C)nc23)ccc1Cc1ccn2ncnc2c1` [Compound 105, (2E)-4-(dimethylamino)-1-[(3S)-3-methyl-4-{4-[(3-methyl-4-{[1,2,4]triazolo[1,5-a]pyridin-7-ylmethyl}phenyl)amino]pyrido[3,2-d]pyrimidin-6-yl}piperazin-1-yl]but-2-en-1-one], the GI50 on Ba/F3 ERBB2 YVMA was 145 nM. Moreover, the IC50 in test [1] was 43.9 nM; in test [2], more than 10000 nM.

Take `C=CC(=O)N1CCN(c2cc3c(Nc4ccc(Oc5ccc6c(c5)ncn6C)c(C)c4)ncnc3cn2)CC1` [Compound 106, 1-{4-[4-({3-methyl-4-[(1-methyl-1,3-benzodiazol-5-yl)oxy]phenyl}amino)pyrido[3,4-d]pyrimidin-6-yl]piperazin-1-yl}prop-2-en-1-one formic acid]: the GI50 at Ba/F3 ERBB2 YVMA stood at 10.3 nM. In addition, the IC50 in test [1] turned out to be 18.1 nM; in test [2], 1060 nM.
